# Results taken from patent US6864364B1, “MinK-related genes, formation of potassium channels and association with cardiac arrhythmia” (priority 1999, dated 2005).
# Columns and labels:
# [1] = molecular target: T1, heteromeric channels containing rMiRP1 (Homo sapiens, UniProt Q12809); experiment: Ca2+ treated as blocking ion, rMiRP1/HERG channels in oocytes, protocols 1 and 2; type: cell-based, rat; settings: rMiRP1/HERG vs HERG
# T1 construct: expressed in transfected cells; host or cells: Xenopus laevis oocytes, cRNA injection
# Method: (§1) Raw data are shown without leak correction. […] All experiments were performed at 22° C.
# HERG channels [2] = molecular target: T2, HERG channels (Homo sapiens, UniProt Q12809); experiment: Ca2+ treated as blocking ion, HERG channels in oocytes, protocols 1 and 2; type: cell-based; set-up: expressed in transfected cells; host or cells: CHO cells; settings: −100 mV, read-out: apparent equilibrium inhibition constant (Ki)
# Method: as §1
# Native IKr channels = settings: ferret cardiac myocytes; Liu et al., 1996; read-out: Ki, E-4031, native IKr channels; cited from earlier work
# HERG channels [3] = molecular target: T2, HERG channels; experiment: cell-based
# Method: (§2) Ionic conditions. Activation of channels formed only with HERG or containing both rMiRP1 and HERG subunits was assessed at various Ca^2+ concentrations by protocols 1 and 2. […] Initial characterizations were thus performed in a “low Ca^2+/high K^+” bath solution (in mM): 95 KCl, 5 NaCl, 1 MgCl2, 0.3 CaCl2 and 10 HEPES, pH 7.6 with NaOH. Other studies use solutions based on levels of ionized species found in human plasma (in mM): 4 KCl, 95 NaCl, 0.75 MgCl2, 1 CaCl2 and 10 HEPES, pH 7.6 with NaOH. For K^+ titrations in FIG. 4, NaCl and KCl were isotonically substituted. For cell-attached patches, pipette solution was (in mM): 100 KCl, 1 MgCl2, 0.3 CaCl2, 10 HEPES, pH 7.5 with KOH. For whole cell, pipettes contained (in mM): 100 KCl, 1 MgCl2, 10 HEPES, 2 EGTA, pH 7.5 with KOH.
# Q9E-hMiRP1 channels = Q9E-hMiRP1 channels (Homo sapiens, UniProt Q12809); experiment: Clarithromycin blockade of Q9E-hMiRP1/HERG channels in CHO cells; settings: for Ki: clarithromycin blockade
# Method: Wild type hMiRP1/HERG channels and those formed with Q9E, M54T, I57T or T8A-hMiRP1 were compared by transient expression in CHO cells using 1 mM Ca^2+, 4 mM KCl solution.
# [4] = molecular target: wild type hMiRP1/HERG channels (Homo sapiens, UniProt Q12809); experiment: Drug blockade of wild type hMiRP1/HERG channels expressed in CHO cells
# Method: as §2
smiles,measurement,setting,value
[Ca+2] [Ca^2+],"apparent Ki relative to HERG channels, fold lower",[1],~3 fold
same,Ki,HERG channels [2],290 ± 20 µM
Cc1cccc(CCN2CCC(C(=O)c3ccc(NS(C)(=O)=O)cc3)CC2)n1 [E-4031],Ki,Native IKr channels,0.0103 µM
CC[C@H]1OC(=O)[C@H](C)[C@@H](O[C@H]2C[C@@](C)(OC)[C@@H](O)[C@H](C)O2)[C@H](C)[C@@H](O[C@@H]2O[C@H](C)C[C@H](N(C)C)[C@H]2O)[C@](C)(OC)C[C@@H](C)C(=O)[C@H](C)[C@@H](O)[C@]1(C)O [clarithromycin],IC50,HERG channels [3],750 ± 310 µM
same,sensitivity to the drug relative to wild type channels,Q9E-hMiRP1 channels,3 fold
same,shift of V1/2 to more positive potentials,Q9E-hMiRP1 channels,10 mV
same,Ki,"Q9E-hMiRP1 channels; CHO cells, 1 mM Ca2+, 4 mM KCl",240 ± 40 µM
same,Ki,"Q9E-hMiRP1 channels; bath K+ reduced to 1 mM, n=6 cells",200 ± 70 µM
same,IC50,[4],720 ± 180 µM
same,Ki,[4],590 ± 100 µM
same,shift of V1/2 to more positive potentials,"[4]; human, pH 7.6",10 mV
